Results reported in PubChem BioAssay AID1845207 (Molecular Pharmacology Branch, DTP, NCI, 2023).
Where “and” joins values, the source holds several entries; their conditions need not be identical. Identical values can stand only once.

Test system: NCI-H1876 tumor spheroid viability
Test: Anticancer human tumor NCI-H1876 cell line growth inhibition;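 also: spheroids exposed to compounds for seven days before the viability read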;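 as to viability, T/C: percent of DMSO vehicle control viability so 100% = vehicle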
Conditions: spheroids with HUVEC and MSC; for viability, T/C: stronger effect = lower value
How it was run: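 Complex spheroids of malignant cells with endothelial cells and mesenchymal stem cells; agents alone or combined, from near clinical Cmax (or 10 microM if unknown) down in half-log steps, 0.25% DMSO final.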

CNCc1ccc(-c2cc(-c3nc(-c4ccc(S(=O)(=O)C(C)C)cc4)cnc3N)on2)cc1 + COc1cc2c(cc1O)CCNC21CSC2c3c(OC(C)=O)c(C)c4c(c3C(COC1=O)N1C(O)C3Cc5cc(C)c(OC)c(O)c5C(C21)N3C)OCO4
IC50 (curve of first compound, second compound 30 pM): 571 nM | IC50 (curve of first compound, second compound 94.9 pM): 223 nM | IC50 (curve of first compound, second compound 0.0003 µM): < 9.49 nM | IC50 (curve of first compound, second compound 0.000949 µM): < 9.49 nM | IC50 (curve of first compound, second compound 0.003 µM): < 9.49 nM | viability, T/C (second compound 30 pM, first compound 0.00949 µM): 103% | viability, T/C (second compound 30 pM, first compound 0.03 µM): 103% | viability, T/C (second compound 30 pM, first compound 0.0949 µM): 97.8% | viability, T/C (second compound 30 pM, first compound 0.3 µM): 67.2% | viability, T/C (second compound 30 pM, first compound 0.949 µM): 36.5% | viability, T/C (second compound 30 pM, first compound 3 µM): 16.2% | viability, T/C (second compound 94.9 pM, first compound 0.00949 µM): 94.4% | viability, T/C (second compound 94.9 pM, first compound 0.03 µM): 89% | viability, T/C (second compound 94.9 pM, first compound 0.0949 µM): 70.5% | viability, T/C (second compound 94.9 pM, first compound 0.3 µM): 42.5% | viability, T/C (second compound 94.9 pM, first compound 0.949 µM): 21.2% | viability, T/C (second compound 94.9 pM, first compound 3 µM): 10.1% | viability, T/C (second compound 0.0003 µM, first compound 0.00949 µM): 27.9% | viability, T/C (second compound 0.0003 µM, first compound 0.03 µM): 24.4% | viability, T/C (second compound 0.0003 µM, first compound 0.0949 µM): 16.4% | viability, T/C (second compound 0.0003 µM, first compound 0.3 µM): 12.7% | viability, T/C (second compound 0.0003 µM, first compound 0.949 µM): 9.09% | viability, T/C (second compound 0.0003 µM, first compound 3 µM): 6.61% | viability, T/C (second compound 0.000949 µM, first compound 0.00949 µM): 4.01% | viability, T/C (second compound 0.000949 µM, first compound 0.03 µM): 3.41% | viability, T/C (second compound 0.000949 µM, first compound 0.0949 µM): 3.12% | viability, T/C (second compound 0.000949 µM, first compound 0.3 µM): 3.01% | viability, T/C (second compound 0.000949 µM, first compound 0.949 µM): 4.43% | viability, T/C (second compound 0.000949 µM, first compound 3 µM): 2.48% | viability, T/C (second compound 0.003 µM, first compound 0.00949 µM): 0.56% | viability, T/C (second compound 0.003 µM, first compound 0.03 µM): 1.11% | viability, T/C (second compound 0.003 µM, first compound 0.0949 µM): 1.21% | viability, T/C (second compound 0.003 µM, first compound 0.3 µM): 0.84% | viability, T/C (second compound 0.003 µM, first compound 0.949 µM): 0.9% | viability, T/C (second compound 0.003 µM, first compound 3 µM): 0.8%

COc1cc(C)[nH]c(=O)c1CN1CCc2c(Cl)cc(C(OC)C3COC3)c(Cl)c2C1=O (configuration not stated)
viability, T/C (compound 0.0316 µM): 106% and 117% and 105% | viability, T/C (compound 0.1 µM): 109% and 112% and 103% | viability, T/C (compound 0.316 µM): 101% and 110% and 98.1% | viability, T/C (compound 1 µM): 102% and 103% and 92.3% | viability, T/C (compound 3.16 µM): 98.3% and 96.9% and 95.2% | viability, T/C (compound 10 µM): 94.2% and 77.4% and 86.5% | IC50 (curve of compound): > 10000 nM

COc1ccc([C@@H](O)c2cc(-c3ncnc4cc(N5CCOCC5)ccc34)c(F)cc2Cl)nn1 + Cn1nnc2c(C(N)=O)ncn2c1=O
IC50 (curve of first compound, second compound 1 µM): 1080 nM | IC50 (curve of first compound, second compound 3.16 µM): 1210 nM | IC50 (curve of first compound, second compound 10 µM): 1000 nM | IC50 (curve of first compound, second compound 31.6 µM): 970 nM | IC50 (curve of first compound, second compound 100 µM): 335 nM | viability, T/C (second compound 1 µM, first compound 0.0316 µM): 93.8% | viability, T/C (second compound 1 µM, first compound 0.1 µM): 86.7% | viability, T/C (second compound 1 µM, first compound 0.316 µM): 74.3% | viability, T/C (second compound 1 µM, first compound 1 µM): 49% | viability, T/C (second compound 1 µM, first compound 3.16 µM): 29% | viability, T/C (second compound 1 µM, first compound 10 µM): 4.64% | viability, T/C (second compound 3.16 µM, first compound 0.0316 µM): 97.5% | viability, T/C (second compound 3.16 µM, first compound 0.1 µM): 85.2% | viability, T/C (second compound 3.16 µM, first compound 0.316 µM): 80% | viability, T/C (second compound 3.16 µM, first compound 1 µM): 53.7% | viability, T/C (second compound 3.16 µM, first compound 3.16 µM): 26.5% | viability, T/C (second compound 3.16 µM, first compound 10 µM): 4.48% | viability, T/C (second compound 10 µM, first compound 0.0316 µM): 94.4% | viability, T/C (second compound 10 µM, first compound 0.1 µM): 86.3% | viability, T/C (second compound 10 µM, first compound 0.316 µM): 72% | viability, T/C (second compound 10 µM, first compound 1 µM): 51% | viability, T/C (second compound 10 µM, first compound 3.16 µM): 23.5% | viability, T/C (second compound 10 µM, first compound 10 µM): 3.37% | viability, T/C (second compound 31.6 µM, first compound 0.0316 µM): 90.8% | viability, T/C (second compound 31.6 µM, first compound 0.1 µM): 82.2% | viability, T/C (second compound 31.6 µM, first compound 0.316 µM): 73.1% | viability, T/C (second compound 31.6 µM, first compound 1 µM): 47.7% | viability, T/C (second compound 31.6 µM, first compound 3.16 µM): 25.1% | viability, T/C (second compound 31.6 µM, first compound 10 µM): 4.04% | viability, T/C (second compound 100 µM, first compound 0.0316 µM): 48.4% | viability, T/C (second compound 100 µM, first compound 0.1 µM): 65.8% | viability, T/C (second compound 100 µM, first compound 0.316 µM): 48.5% | viability, T/C (second compound 100 µM, first compound 1 µM): 36.1% | viability, T/C (second compound 100 µM, first compound 3.16 µM): 17.8% | viability, T/C (second compound 100 µM, first compound 10 µM): 2.3%
